# Measured values as given in patent US20200071357A1, “ANTIMICROBIAL PEPTIDES” (UNIVERSITETET I TROMSØ - NORGES ARKTISKE UNIVERSITET, priority 2016, published 2020).
# Where no end group is shown, it is not given here.
# Assays:
# Type in all cases: cell-based
# [1] = system: Corynebacterium glutamicum (Cg, ATCC 13032); conditions: ATCC 13032, 24 h
# Experimental: (§1) The peptides were screened for antibacterial activity against two strains of Gram-positive and two strains of Gram-negative bacteria; Corynebacterium glutamicum (Cg, ATCC 13032), Staphylococcus aureus (Sa, ATCC 9144), Pseudomonas aeruginosa (Pa, ATCC 27853) and Escherichia coli (Ec, ATCC 25922).
# (§2) Cultures stored at −80° C. in glycerol were transferred to Müller-Hinton plates (MH, Difco, Lawrence, Kans., USA) and incubated for 24 h at 35° C. A few colonies of each bacterial strain were transferred to 5 ml liquid MH medium and left shaking at room temperature overnight at 600 rpm. Cultures of actively growing bacteria (20 μl) were inoculated in 5 ml MH medium and left shaking for 2 h at room temperature. The antibacterial assays were performed as previously described by Sperstad, S. V., et al. ((2009) Mol. Immunol. 46, 2604-2612) with the following exception: bacterial cultures were diluted with medium to 2.5-3×10^4 bacteria/ml concentrations. An aliquot of 50 μl (1250-1500 bacterial cells) was added to each well in 96-well Nunclon™ microtiter plates (Nagle Nunc Int., Denmark) preloaded with peptide solution (50 μl).
# (§3) The microtiter plates were incubated for 24 h at 35° C. with optical density recorded every hour using an Envision 2103 multilabel reader, controlled by a Wallac Envision manager (PerkinElmer, Conn., USA). Minimum inhibitory concentration (MIC) was defined as a sample showing complete inhibition (as measured by optical density at 595 nm) compared to the negative (growth) controls, consisting of bacteria and water. Oxytetracycline (20 μM) served as a positive (inhibition) control.
# (§4) The synthetic peptides were tested for antibacterial activity in concentrations ranging from 200 to 0.1 μM in two-fold dilutions. All tests were performed in triplicates.
# [2] = system: Escherichia coli (Ec, ATCC 25922); conditions: ATCC 25922, 24 h
# Experimental: as §1, §2, §3, §4
# [3] = system: Pseudomonas aeruginosa (Pa, ATCC 27853); conditions: ATCC 27853, 24 h
# Experimental: as §1, §2, §3, §4
# [4] = system: human red blood cells; assay: Haemolytic assay; conditions: human red blood cells, one hour at 37° C.; for Haemolysis (%) 25 μM: peptide 25 μM; for Haemolysis (%) 200 μM: peptide 200 μM
# Experimental: Selected synthesised peptide analogues were also screened for haemolytic activity using human red blood cells as described previously (Sperstad, S. V., et al. (2009) Dev. Comp. Immunol. 33, 583-591). The assay was performed on 96-well U-shaped microtiter plates (Nagle Nunc) with 50 μl peptide sample, 40 μl phosphate-buffered saline (PBS) and 10 μl red blood cells. After one hour of incubation at 37° C. in a shaker, the plate was centrifuged at 200 g for 5 min and the supernatants (60 μl) were carefully transferred to a new flat-bottomed polycarbonate microtiter plate (Nagle Nunc) and the release of haemoglobin (absorbance at 550 nm) was measured on a Synergy H1 multimode reader (BioTek, Vt., USA). Cell suspension added 0.05% Triton X-100 (Sigma-Aldrich, Mo., USA) in PBS served as positive (100% haemolysis) control and cell suspension added PBS served as negative (0% haemolysis, blank) control. The percent haemolysis was calculated using the formula [(Asample-Abaseline)/(Atriton-Abaseline)]×100. The cytotoxic peptide melittin (Sigma-Aldrich) was used as a positive control peptide and for comparison. The experiment was performed in triplicates with peptide concentrations ranging from 200 μM to 1.56 μM in two-fold dilutions.
# [5] = system: Aureobasidium pullulans; conditions: 24 h
# Experimental: (§5) The synthetic peptides were also screened for antifungal activity against Candida albicans (ATCC 10231), Aureobasidium pullulans and Rhodotorula sp. (the last two were obtained from Professor Arne Tronsmo, The Norwegian University of Life Sciences, As, Norway). The antifungal assay was performed as previously described (Sperstad, S. V., et al. (2009) Dev. Comp. Immunol. 33, 583-591). Briefly, fungal spores were dissolved in potato dextrose broth (Difco, Lawrence, Kans., USA) to a concentration of 4×10^5 spores/ml. The spores (50 μl) were inoculated on 96-well Nunclon™ microtiter plates containing the synthetic peptides (50 μl) dissolved in MQ-H2O. […] The negative (growth) control consisted of medium and fungal solution. The peptides were tested for activity in concentrations ranging from 100 to 0.1 μM in two-fold serial dilutions. All tests were performed in triplicates.
# [6] = system: Candida albicans (ATCC 10231); conditions: ATCC 10231, 24 h
# Experimental: as §5
# [7] = system: Rhodotorula sp.; conditions: 24 h
# Experimental: as §5
# [8] = system: Staphylococcus aureus (Sa, ATCC 9144); conditions: ATCC 9144, 24 h
# Experimental: as §1, §2, §3, §4
Substance,MIC (μM) Cg [1],MIC (μM) Ec [2],MIC (μM) Pa [3],Haemolysis (%) 25 μM [4],Haemolysis (%) 200 μM [4],MIC (μM) A. pullulans [5],MIC (μM) C. albicans [6],MIC (μM) Rhodotorula sp. [7],MIC (μM) Sa [8]
"AWWRRTVAKVRK-NH2 [Peptide G1A, AWWRRTVAKVRK-NH2]",0.8 µM,12.5 µM,6.3 µM,0.0%,1.6%,50 µM,25 µM,12.5 µM,–
"GAWRRTVAKVRK-NH2 [Peptide W2A, GAWRRTVAKVRK-NH2]",3.1 µM,–,–,0.0%,0.0%,50 µM,50 µM,25 µM,100 µM
"GWARRTVAKVRK-NH2 [Peptide W3A, GWARRTVAKVRK-NH2]",0.8 µM,–,–,0.0%,0.0%,50 µM,50 µM,25 µM,–
"GWARRWVAKVRK-NH2 [HC(1-12)A3W6A8K12, GWARRWVAKVRK-NH2]",0.8 µM,6.3 µM,12.5 µM,–,–,25 µM,6.3 µM,6.3 µM,50 µM
"GWWARTVAKVRK-NH2 [Peptide R4A, GWWARTVAKVRK-NH2]",1.6 µM,6.3 µM,12.5 µM,0.0%,3.6%,50 µM,25 µM,50 µM,50 µM
"GWWRATVAKVRK-NH2 [Peptide R5A, GWWRATVAKVRK-NH2]",0.8 µM,6.3 µM,25 µM,0.0%,0.0%,25 µM,25 µM,12.5 µM,100 µM
"GWWRRAVAKVRK-NH2 [Peptide T6A, GWWRRAVAKVRK-NH2]",1.6 µM,–,–,0.9%,4.1%,25 µM,25 µM,12.5 µM,–
"GWWRRKVAKVRK-NH2 [HC(1-12)K6A8K12, GWWRRKVAKVRK-NH2]",1.6 µM,12.5 µM,50 µM,–,–,25 µM,50 µM,25 µM,12.5 µM
"GWWRRTAAKVRK-NH2 [Peptide V7A, GWWRRTAAKVRK-NH2]",1.6 µM,12.5 µM,12.5 µM,0.0%,0.0%,25 µM,25 µM,12.5 µM,100 µM
"GWWRRTVAAVRK-NH2 [Peptide K9A, GWWRRTVAAVRK-NH2]",1.6 µM,–,–,0.0%,5.1%,25 µM,25 µM,12.5 µM,100 µM
